# Results as given in US20120197004A1, “NOVEL ANTI-MICROBIAL PEPTIDOMIMETIC COMPOUNDS AND METHODS TO CALCULATE ANTI-MICROBIAL ACTIVITY” (priority 2006, published 2012).
# Where a SMILES comes first, the peptide text is derived from it. [ ]: non-standard residue; d: D form. Oic = O=C(O)[C@@H]1C[C@@H]2CCCC[C@@H]2N1; Tic = O=C(O)[C@@H]1Cc2ccccc2CN1; GABA = NCCCC(=O)O
# Test system: Mycobacterium ranae (ATCC 110)
# Settings: in vitro
compound,measurement,value
"CC(=O)NCCCC(=O)N[C@@H](Cc1ccccc1)C(=O)N1Cc2ccccc2C[C@H]1C(=O)N1[C@H](C(=O)NCCCC(=O)N[C@@H](CCCCN)C(=O)N2Cc3ccccc3C[C@H]2C(=O)N2[C@H](C(=O)NCCCC(=O)N[C@@H](Cc3ccccc3)C(=O)N3Cc4ccccc4C[C@H]3C(=O)N3[C@H](C(=O)NCCCC(=O)N[C@@H](CCCCN)C(=O)N4Cc5ccccc5C[C@H]4C(=O)N[C@@H](CCCCN)C(=O)N[C@@H](CCCCN)C(=O)N[C@@H](CCCCN)C(=O)N[C@@H](CCCCN)C(=O)N[C@@H](CCCCN)C(N)=O)C[C@@H]4CCCC[C@@H]43)C[C@@H]3CCCC[C@@H]32)C[C@@H]2CCCC[C@@H]21 [FKAB-1Gd3, Ac-Gaba-F-Tic-Oic-Gaba-K-Tic-Oic-Gaba-F-Tic-Oic-Gaba-K-Tic-KKKKK-CONH2] (Ac-[GABA]F[Tic][Oic][GABA]K[Tic][Oic][GABA]F[Tic][Oic][GABA]K[Tic]KKKKK-NH2)",selectivity for Mycobacterium ranae over Staphylococcus aureus ME/GM/TC resistant,10 fold
